Data as given in PMC12586182 (Frontiers in Oncology, 2025).

Experiments:
Test in all cases: Kinase panel profiling at 1 µmol/L (mobility shift assay, Carna)
Format in all cases: biochemical
Conditions in all cases: 1 µmol/L of BTK inhibitor
[1] = target: T1, EPHA1 (Homo sapiens, UniProt P21709)
T1 construct: purchased Carna Biosciences
T1 sequence (P21709 26-976): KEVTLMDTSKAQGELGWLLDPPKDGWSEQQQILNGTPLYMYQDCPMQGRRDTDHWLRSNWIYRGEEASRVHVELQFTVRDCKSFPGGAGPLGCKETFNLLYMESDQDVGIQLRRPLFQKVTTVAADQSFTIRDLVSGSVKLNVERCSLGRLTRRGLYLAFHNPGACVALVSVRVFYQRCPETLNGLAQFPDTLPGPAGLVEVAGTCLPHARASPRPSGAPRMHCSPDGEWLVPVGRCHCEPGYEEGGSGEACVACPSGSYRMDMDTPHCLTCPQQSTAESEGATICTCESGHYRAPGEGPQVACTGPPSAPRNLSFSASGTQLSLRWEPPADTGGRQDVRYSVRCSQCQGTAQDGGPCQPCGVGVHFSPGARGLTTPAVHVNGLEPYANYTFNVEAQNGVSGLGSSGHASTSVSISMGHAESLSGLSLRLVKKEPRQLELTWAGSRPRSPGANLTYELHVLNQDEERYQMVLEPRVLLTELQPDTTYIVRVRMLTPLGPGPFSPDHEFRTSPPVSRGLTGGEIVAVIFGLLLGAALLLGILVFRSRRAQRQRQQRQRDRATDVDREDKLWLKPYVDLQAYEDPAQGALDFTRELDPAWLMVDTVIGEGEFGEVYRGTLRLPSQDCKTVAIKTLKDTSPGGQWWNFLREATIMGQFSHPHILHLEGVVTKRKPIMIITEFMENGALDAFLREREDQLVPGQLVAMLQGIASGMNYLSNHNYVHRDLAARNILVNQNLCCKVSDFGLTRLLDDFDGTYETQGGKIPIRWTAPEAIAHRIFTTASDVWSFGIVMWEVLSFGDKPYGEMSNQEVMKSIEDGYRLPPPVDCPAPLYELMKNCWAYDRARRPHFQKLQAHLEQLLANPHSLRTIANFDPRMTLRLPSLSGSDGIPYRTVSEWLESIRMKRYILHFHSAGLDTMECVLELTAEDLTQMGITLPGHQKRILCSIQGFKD

[2] = target: T2, FES (Homo sapiens, UniProt P07332)
T2 construct: purchased Carna Biosciences
T2 sequence (P07332 whole entry): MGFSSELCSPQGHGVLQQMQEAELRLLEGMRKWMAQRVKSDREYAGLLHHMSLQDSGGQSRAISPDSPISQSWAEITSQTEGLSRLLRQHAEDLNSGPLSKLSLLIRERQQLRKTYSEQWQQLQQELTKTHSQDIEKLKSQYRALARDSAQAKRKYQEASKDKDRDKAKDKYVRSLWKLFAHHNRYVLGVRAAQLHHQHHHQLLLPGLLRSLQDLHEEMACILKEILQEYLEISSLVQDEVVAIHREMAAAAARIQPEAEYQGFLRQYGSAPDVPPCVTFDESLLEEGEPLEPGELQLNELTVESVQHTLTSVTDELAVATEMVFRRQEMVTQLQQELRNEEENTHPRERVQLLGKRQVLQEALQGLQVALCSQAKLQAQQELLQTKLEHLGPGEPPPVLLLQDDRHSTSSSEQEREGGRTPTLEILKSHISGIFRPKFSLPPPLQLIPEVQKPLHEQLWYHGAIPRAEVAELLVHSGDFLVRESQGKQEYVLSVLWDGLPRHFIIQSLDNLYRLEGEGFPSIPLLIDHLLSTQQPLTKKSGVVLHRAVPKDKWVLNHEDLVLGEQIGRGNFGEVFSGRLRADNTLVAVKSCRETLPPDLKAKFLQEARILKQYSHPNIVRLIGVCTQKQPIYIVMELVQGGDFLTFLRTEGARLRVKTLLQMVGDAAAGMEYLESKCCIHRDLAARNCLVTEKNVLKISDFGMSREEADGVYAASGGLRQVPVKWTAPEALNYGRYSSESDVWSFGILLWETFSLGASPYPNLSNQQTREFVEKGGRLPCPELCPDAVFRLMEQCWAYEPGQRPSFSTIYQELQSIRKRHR

[3] = target: T3, JAK1 (Homo sapiens, UniProt P23458)
T3 construct: purchased Carna Biosciences
T3 sequence (P23458 whole entry): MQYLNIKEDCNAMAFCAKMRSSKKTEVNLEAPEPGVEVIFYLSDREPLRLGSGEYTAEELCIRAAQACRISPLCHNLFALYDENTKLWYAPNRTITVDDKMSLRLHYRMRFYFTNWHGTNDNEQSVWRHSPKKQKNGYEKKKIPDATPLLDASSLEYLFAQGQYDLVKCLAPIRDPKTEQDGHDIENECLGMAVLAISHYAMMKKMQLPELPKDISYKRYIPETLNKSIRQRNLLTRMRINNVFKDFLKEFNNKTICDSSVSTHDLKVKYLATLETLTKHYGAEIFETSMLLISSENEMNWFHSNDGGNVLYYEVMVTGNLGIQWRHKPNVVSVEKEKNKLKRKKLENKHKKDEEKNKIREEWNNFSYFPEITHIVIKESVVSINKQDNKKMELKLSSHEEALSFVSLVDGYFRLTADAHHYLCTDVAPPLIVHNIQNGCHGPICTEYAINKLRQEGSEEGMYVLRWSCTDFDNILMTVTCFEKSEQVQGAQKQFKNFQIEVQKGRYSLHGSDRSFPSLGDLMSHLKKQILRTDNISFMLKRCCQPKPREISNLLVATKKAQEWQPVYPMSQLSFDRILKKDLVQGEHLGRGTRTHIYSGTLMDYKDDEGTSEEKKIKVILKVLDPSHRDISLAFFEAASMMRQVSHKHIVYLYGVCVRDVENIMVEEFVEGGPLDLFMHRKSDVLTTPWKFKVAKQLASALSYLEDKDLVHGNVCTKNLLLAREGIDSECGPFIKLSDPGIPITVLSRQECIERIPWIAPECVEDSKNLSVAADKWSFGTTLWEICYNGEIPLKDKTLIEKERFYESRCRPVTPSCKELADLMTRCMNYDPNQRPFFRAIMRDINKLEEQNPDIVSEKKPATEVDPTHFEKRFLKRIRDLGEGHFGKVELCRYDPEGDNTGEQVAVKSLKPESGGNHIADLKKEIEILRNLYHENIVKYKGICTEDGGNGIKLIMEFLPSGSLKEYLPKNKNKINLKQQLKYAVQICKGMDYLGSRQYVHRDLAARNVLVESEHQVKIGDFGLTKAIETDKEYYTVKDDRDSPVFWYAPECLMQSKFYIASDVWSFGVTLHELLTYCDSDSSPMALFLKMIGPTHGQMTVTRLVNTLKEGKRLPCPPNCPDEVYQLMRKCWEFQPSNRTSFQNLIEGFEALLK

[4] = target: T4, TRKB (Homo sapiens, UniProt Q16620)
T4 construct: purchased Carna Biosciences
T4 sequence (Q16620 32-822): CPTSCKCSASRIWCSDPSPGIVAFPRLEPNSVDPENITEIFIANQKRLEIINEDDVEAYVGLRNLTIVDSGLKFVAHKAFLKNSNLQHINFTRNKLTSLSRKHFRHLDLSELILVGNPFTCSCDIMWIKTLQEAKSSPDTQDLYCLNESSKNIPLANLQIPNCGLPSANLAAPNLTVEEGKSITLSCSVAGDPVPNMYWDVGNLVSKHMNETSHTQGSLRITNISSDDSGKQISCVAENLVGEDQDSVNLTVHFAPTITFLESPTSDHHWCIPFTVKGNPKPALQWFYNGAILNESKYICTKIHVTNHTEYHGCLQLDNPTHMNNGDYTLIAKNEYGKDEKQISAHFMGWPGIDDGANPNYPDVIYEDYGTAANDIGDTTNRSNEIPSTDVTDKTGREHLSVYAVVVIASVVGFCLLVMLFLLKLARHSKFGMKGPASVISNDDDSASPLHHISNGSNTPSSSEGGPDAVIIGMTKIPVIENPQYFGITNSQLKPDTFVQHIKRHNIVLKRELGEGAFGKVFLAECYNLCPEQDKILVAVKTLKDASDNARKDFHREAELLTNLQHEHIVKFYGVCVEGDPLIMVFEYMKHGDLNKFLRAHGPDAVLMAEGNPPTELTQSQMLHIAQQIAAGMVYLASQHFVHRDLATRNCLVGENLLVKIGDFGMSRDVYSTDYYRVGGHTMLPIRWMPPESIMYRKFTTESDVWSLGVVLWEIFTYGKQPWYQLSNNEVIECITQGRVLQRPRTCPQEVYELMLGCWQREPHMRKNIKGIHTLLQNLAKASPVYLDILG

[5] = target: T5, CDK3/CycE1 (Homo sapiens, UniProt Q00526)
T5 construct: purchased Carna Biosciences

[6] = target: T6, CDK6/CycD3 (Homo sapiens, UniProt Q00534)
T6 construct: purchased Carna Biosciences

[7] = target: T7, CGK2 (Homo sapiens, UniProt Q13237)
T7 construct: purchased Carna Biosciences
T7 sequence (Q13237 1-762): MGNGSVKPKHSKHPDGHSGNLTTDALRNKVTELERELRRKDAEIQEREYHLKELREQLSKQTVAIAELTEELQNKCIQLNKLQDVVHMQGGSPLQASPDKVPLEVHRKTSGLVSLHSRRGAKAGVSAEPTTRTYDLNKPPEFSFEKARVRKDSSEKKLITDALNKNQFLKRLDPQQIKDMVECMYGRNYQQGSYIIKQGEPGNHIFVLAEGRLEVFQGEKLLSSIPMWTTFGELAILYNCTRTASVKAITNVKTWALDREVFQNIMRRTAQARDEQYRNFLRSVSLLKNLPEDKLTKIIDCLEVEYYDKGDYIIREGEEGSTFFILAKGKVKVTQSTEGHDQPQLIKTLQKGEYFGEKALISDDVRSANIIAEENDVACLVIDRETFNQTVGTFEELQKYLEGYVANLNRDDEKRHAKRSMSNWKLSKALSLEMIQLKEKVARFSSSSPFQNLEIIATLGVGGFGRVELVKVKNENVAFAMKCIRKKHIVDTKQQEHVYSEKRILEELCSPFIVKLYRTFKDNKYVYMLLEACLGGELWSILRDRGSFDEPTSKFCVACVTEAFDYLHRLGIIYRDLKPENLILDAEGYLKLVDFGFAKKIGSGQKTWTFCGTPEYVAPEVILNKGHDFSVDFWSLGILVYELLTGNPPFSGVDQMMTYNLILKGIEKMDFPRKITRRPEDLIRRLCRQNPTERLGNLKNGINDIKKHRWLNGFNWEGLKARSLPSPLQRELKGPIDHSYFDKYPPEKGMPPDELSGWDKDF

[8] = target: T8, CLK3 (Homo sapiens, UniProt P49761)
T8 construct: purchased Carna Biosciences

[9] = target: T9, IRAK1 (Homo sapiens, UniProt P51617)
T9 construct: purchased Carna Biosciences
T9 sequence (P51617 whole entry): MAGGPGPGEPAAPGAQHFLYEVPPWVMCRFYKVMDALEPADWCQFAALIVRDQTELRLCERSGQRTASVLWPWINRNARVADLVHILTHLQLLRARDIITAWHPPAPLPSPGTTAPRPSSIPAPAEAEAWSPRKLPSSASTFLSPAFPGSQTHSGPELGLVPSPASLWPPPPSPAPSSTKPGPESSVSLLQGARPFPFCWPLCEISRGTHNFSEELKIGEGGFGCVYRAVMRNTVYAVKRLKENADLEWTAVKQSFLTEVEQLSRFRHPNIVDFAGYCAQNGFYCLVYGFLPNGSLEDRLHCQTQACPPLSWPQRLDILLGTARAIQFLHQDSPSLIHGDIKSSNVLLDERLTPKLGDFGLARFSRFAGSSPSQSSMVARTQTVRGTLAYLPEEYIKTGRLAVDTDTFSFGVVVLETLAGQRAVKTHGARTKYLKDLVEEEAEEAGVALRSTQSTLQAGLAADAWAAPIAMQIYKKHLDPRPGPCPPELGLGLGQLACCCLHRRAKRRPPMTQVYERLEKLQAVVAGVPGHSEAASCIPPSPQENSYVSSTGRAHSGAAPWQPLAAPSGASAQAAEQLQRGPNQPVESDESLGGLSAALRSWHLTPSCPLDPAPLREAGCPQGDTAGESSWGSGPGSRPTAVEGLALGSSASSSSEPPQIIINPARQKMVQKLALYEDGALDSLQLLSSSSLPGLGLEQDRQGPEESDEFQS

[10] = target: T10, MELK (Homo sapiens, UniProt Q14680)
T10 construct: purchased Carna Biosciences

[11] = target: T11, MNK2 (Homo sapiens, UniProt Q9HBH9)
T11 construct: purchased Carna Biosciences
T11 sequence (Q9HBH9 whole entry): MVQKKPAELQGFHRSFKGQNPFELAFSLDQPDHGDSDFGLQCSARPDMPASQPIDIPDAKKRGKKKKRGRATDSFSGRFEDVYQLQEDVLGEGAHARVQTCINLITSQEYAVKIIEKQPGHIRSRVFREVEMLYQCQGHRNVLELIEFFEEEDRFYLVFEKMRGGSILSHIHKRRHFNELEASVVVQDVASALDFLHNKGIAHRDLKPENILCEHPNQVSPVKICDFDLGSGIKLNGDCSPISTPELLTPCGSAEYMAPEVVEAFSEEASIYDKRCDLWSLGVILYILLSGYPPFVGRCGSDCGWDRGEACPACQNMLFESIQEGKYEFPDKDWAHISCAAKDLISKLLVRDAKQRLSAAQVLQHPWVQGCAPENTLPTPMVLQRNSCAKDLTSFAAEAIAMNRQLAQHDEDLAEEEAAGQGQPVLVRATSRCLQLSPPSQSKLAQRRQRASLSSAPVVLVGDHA

[12] = target: T12, NDR2 (Homo sapiens, UniProt Q9Y2H1)
T12 construct: purchased Carna Biosciences
T12 sequence (Q9Y2H1 whole entry): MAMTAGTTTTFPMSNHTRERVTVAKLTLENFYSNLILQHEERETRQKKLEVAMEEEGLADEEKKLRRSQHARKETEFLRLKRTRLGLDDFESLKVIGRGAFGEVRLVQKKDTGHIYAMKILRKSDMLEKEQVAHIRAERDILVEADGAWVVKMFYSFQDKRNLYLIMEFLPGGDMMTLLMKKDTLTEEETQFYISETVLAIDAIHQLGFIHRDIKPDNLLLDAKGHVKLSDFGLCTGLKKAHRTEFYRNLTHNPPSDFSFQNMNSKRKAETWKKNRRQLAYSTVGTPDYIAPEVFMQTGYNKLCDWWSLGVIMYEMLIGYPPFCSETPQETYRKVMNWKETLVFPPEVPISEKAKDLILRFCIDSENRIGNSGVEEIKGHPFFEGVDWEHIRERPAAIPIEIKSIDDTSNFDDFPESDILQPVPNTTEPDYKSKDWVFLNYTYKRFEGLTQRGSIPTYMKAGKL

[13] = target: T13, PKACγ (Homo sapiens, UniProt P22612)
T13 construct: purchased Carna Biosciences
T13 sequence (P22612 whole entry): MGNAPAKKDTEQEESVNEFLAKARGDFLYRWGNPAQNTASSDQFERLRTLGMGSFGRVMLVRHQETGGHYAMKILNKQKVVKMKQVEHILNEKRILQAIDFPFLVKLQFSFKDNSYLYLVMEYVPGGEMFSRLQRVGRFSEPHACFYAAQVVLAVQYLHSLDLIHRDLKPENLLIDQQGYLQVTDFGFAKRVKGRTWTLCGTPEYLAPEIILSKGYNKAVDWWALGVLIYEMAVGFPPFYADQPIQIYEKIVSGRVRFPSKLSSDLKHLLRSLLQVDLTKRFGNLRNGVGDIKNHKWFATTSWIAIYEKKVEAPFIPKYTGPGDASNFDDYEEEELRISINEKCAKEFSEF

[14] = target: T14, PKCβ1 (Homo sapiens, UniProt P05771)
T14 construct: purchased Carna Biosciences

[15] = target: T15, RSK2 (Homo sapiens, UniProt P51812)
T15 construct: purchased Carna Biosciences

Row | Structure (SMILES) | Percentage inhibition of kinase enzyme activity [1] | Percentage inhibition of kinase enzyme activity [2] | Percentage inhibition of kinase enzyme activity [3] | Percentage inhibition of kinase enzyme activity [4] | Percentage inhibition of kinase enzyme activity [5] | Percentage inhibition of kinase enzyme activity [6] | Percentage inhibition of kinase enzyme activity [7] | Percentage inhibition of kinase enzyme activity [8] | Percentage inhibition of kinase enzyme activity [9] | Percentage inhibition of kinase enzyme activity [10] | Percentage inhibition of kinase enzyme activity [11] | Percentage inhibition of kinase enzyme activity [12] | Percentage inhibition of kinase enzyme activity [13] | Percentage inhibition of kinase enzyme activity [14] | Percentage inhibition of kinase enzyme activity [15]
1 | CC#CC(=O)N1CCC[C@H]1c1nc(-c2ccc(C(=O)Nc3ccccn3)cc2)c2c(N)nccn12 [acalabrutinib] | -0.59% | -6.35% | -12.91% | 13.81% | -6.14% | 2.94% | 1.55% | -14.91% | -7.06% | -0.54% | 12.37% | -6.41% | 1.68% | -10.97% | 0.054%
2 | C=CC(=O)N1CCC[C@@H](n2nc(-c3ccc(Oc4ccccc4)cc3)c3c(N)ncnc32)C1 [ibrutinib] | 49.82% | 0.68% | -9.54% | 25.78% | 0.49% | 4.32% | -1.77% | – | -10.80% | 8.08% | 19.75% | 3.47% | 4.90% | -2.90% | 7.41%
3 | O=C(c1ccc(Oc2ccccc2)cc1Cl)c1c[nH]c2ncnc(N[C@@H]3CC[C@@H](CO)OC3)c12 [nemtabrutinib] | 58.54% | 93.26% | 32.55% | 101.64% | 7.04% | 0.23% | -1.75% | -2.19% | -0.39% | 81.25% | 56.12% | -0.25% | 11.12% | -3.07% | 7.48%
4 | COc1ccc(F)cc1C(=O)NCc1ccc(-c2nn([C@@H](C)C(F)(F)F)c(N)c2C(N)=O)cc1 [pirtobrutinib] | -1.27% | 11.87% | -2.12% | 4.46% | -4.77% | -5.97% | -1.75% | 14.87% | -6.46% | -5.13% | 7.34% | -4.16% | 1.36% | 5.78% | 2.95%
5 | C=CC(=O)N1CCC([C@@H]2CCNc3c(C(N)=O)c(-c4ccc(Oc5ccccc5)cc4)nn32)CC1 [zanubrutinib] | -1.86% | 4.53% | -0.37% | – | – | – | – | – | – | – | – | 0.50% | – | – | –
